Consider 2 compounds from article PMC12498388, “Niraparib Demonstrates Therapeutic Potential in Multiple Sclerosis through Inhibition of IL-17A Receptor Interaction and Promotion of Remyelination” (ACS Chemical Neuroscience, 2025).

The target of experiment [1] is T1, IL-17A with IL-17RA/IL-17RC receptor (HEK-Blue IL-17 reporter cells) (Homo sapiens, UniProt Q16552).
T1 construct: gene IL17A; IL-17A ligand supplied by the manufacturer, added to HEK 293 cells stably transfected with IL-17RA/IL-17RC heterodimeric receptor and Act1 adaptor; SEAP reporter (NF-kB/AP-1); with Interleukin-17 receptor A; Interleukin-17 receptor C
Kind of experiment: SEAP reporter assay in HEK-Blue IL-17 cells, QUANTI-Blue […] nm. In kind it is cell-based. The following applies: IL-17A-stimulated cells, 37 °C overnight, 1 nM to 100 μM, four-parameter fit; indirect downstream reporter read-out (NF-kB/AP-1), binding site not shown experimentally. (In general: Reporter assays use an easily measured gene product as a stand-in for the process of interest.)

The target in experiment [2] is IL-17RA/IL-17RC heterodimeric receptor (UniProt Q96F46).

Chain of IL-17A (Q16552 24-155): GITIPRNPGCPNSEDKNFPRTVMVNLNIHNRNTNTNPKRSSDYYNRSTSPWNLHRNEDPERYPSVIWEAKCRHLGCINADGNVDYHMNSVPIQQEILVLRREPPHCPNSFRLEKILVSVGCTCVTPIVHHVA

For `NC(=O)c1cccc2cn(-c3ccc([C@@H]4CCCNC4)cc3)nc12` [Niraparib], the IC50 in experiment [1] is 70 µM.

“IL-17A (from UniProt Q16552 24-155) (ligand)” showed an SEAP release of HEK-Blue IL-17 reporter cells (QUANTI-Blue, 630 nm) with IL-17A; percent inhibition by the small molecule Niraparib, 1 nM to 100 uM (22% at 1 uM, 51% at 10 uM, 99.3% at 100 uM) in experiment [2] of 99.3%.

Usually IC50 stands for the concentration at which inhibition is half-maximal.
